Experimental data: ChEMBL document CHEMBL5291721, “A preclinical secondary pharmacology resource illuminates target-adverse drug reaction associations of marketed drugs” (Nat Commun, 2023)

How the values were obtained:
[1] = target: T1, Alpha-2A adrenergic receptor (Homo sapiens, UniProt P08913); format: functional, cell-based
T1 sequence (P08913 whole entry): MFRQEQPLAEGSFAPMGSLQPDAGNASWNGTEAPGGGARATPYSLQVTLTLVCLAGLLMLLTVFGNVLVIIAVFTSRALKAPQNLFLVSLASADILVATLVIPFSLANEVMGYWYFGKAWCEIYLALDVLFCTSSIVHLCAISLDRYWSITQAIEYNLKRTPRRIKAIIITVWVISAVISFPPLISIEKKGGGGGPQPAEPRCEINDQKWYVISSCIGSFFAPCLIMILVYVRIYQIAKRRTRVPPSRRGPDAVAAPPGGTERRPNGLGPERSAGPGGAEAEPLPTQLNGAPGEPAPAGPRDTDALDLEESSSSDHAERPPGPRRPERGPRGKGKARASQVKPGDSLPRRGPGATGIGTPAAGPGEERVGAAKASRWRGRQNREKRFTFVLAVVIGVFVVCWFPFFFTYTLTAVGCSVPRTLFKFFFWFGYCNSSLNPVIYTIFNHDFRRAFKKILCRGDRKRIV

[2] = target: T2, Prostaglandin G/H synthase 1 (Rattus norvegicus, UniProt Q63921); format: functional
T2 sequence (Q63921 whole entry): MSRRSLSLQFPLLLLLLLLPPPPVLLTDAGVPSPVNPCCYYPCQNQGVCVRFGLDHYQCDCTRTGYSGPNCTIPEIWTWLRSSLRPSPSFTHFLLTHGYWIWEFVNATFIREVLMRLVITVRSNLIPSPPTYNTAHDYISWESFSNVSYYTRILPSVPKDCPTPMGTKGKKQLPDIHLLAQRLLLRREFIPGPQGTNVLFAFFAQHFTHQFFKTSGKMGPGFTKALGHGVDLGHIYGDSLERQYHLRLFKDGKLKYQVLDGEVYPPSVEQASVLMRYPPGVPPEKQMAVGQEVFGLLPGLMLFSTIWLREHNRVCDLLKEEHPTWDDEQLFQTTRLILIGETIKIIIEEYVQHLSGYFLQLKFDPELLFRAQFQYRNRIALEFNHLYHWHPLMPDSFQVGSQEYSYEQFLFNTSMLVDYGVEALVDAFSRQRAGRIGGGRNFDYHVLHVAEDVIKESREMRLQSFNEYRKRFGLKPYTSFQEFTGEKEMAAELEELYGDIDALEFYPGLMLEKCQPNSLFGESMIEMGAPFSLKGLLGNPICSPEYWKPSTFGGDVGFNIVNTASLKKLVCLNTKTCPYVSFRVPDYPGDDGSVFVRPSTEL

[3] = target: T1, Alpha-2A adrenergic receptor; format: functional, cell-based; remark: listed apart in the source
[4] = target: Delta-type opioid receptor (Homo sapiens, UniProt P41143)
[5] = target: Gamma-aminobutyric acid receptor subunit alpha-1 (Rattus norvegicus, UniProt P62813); format: functional
[6] = target: T3, Equilibrative nucleoside transporter 1 (Homo sapiens, UniProt Q99808)
T3 sequence (Q99808 whole entry): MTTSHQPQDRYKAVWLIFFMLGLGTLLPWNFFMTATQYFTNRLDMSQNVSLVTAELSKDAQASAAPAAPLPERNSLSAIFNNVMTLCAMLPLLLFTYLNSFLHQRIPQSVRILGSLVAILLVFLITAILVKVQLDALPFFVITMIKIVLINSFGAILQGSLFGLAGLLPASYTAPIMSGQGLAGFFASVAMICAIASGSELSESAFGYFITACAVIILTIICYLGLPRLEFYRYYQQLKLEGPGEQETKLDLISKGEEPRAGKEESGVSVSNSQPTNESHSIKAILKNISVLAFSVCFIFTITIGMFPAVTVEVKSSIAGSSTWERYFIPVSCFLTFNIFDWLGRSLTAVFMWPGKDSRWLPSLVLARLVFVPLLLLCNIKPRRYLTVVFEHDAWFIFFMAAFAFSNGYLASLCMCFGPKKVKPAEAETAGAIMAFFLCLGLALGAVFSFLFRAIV

Melanocortin receptor 3 = Melanocortin receptor 3 (Homo sapiens, UniProt P41968)
[7] = target: 3',5'-cyclic-AMP phosphodiesterase 4D (Homo sapiens, UniProt Q08499); format: functional
Bile salt export pump = Bile salt export pump (Homo sapiens, UniProt O95342); format: functional
[8] = target: Voltage-gated inwardly rectifying potassium channel KCNH2 (Homo sapiens, UniProt Q12809); format: functional; conditions: read-out: AC50
Adenosine receptor A2a = Adenosine receptor A2a (Homo sapiens, UniProt P29274)
D(1A) dopamine receptor = D(1A) dopamine receptor (Homo sapiens, UniProt P21728); format: functional, cell-based
[9] = target: Neuronal acetylcholine receptor subunit alpha-4 (Homo sapiens, UniProt P43681)
[10] = target: Sodium-dependent dopamine transporter (Homo sapiens, UniProt Q01959)
[11] = target: 5-hydroxytryptamine receptor 2B (Homo sapiens, UniProt P41595); format: functional, cell-based
[12] = target: Sodium-dependent noradrenaline transporter (Homo sapiens, UniProt P23975)
[13] = target: Growth hormone secretagogue receptor type 1 (Homo sapiens, UniProt Q92847)
[14] = target: T4, 5-hydroxytryptamine receptor 3A (Homo sapiens, UniProt P46098); format: functional
T4 sequence (P46098 whole entry): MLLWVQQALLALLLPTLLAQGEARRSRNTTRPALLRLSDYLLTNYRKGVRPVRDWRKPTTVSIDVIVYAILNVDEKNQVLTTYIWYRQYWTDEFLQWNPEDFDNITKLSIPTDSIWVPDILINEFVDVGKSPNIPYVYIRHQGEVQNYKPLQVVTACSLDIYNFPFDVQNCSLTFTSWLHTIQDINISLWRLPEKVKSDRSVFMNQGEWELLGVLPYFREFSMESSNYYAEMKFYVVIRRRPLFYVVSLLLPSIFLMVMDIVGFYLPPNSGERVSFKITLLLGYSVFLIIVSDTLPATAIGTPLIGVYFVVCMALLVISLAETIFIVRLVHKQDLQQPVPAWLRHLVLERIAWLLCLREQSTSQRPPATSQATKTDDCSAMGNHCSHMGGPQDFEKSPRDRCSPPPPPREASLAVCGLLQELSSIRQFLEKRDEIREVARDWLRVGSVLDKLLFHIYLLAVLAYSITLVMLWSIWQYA
Also: assay procedure not described here.

Sequence of Voltage-gated inwardly rectifying potassium channel KCNH2 (Q12809 whole entry): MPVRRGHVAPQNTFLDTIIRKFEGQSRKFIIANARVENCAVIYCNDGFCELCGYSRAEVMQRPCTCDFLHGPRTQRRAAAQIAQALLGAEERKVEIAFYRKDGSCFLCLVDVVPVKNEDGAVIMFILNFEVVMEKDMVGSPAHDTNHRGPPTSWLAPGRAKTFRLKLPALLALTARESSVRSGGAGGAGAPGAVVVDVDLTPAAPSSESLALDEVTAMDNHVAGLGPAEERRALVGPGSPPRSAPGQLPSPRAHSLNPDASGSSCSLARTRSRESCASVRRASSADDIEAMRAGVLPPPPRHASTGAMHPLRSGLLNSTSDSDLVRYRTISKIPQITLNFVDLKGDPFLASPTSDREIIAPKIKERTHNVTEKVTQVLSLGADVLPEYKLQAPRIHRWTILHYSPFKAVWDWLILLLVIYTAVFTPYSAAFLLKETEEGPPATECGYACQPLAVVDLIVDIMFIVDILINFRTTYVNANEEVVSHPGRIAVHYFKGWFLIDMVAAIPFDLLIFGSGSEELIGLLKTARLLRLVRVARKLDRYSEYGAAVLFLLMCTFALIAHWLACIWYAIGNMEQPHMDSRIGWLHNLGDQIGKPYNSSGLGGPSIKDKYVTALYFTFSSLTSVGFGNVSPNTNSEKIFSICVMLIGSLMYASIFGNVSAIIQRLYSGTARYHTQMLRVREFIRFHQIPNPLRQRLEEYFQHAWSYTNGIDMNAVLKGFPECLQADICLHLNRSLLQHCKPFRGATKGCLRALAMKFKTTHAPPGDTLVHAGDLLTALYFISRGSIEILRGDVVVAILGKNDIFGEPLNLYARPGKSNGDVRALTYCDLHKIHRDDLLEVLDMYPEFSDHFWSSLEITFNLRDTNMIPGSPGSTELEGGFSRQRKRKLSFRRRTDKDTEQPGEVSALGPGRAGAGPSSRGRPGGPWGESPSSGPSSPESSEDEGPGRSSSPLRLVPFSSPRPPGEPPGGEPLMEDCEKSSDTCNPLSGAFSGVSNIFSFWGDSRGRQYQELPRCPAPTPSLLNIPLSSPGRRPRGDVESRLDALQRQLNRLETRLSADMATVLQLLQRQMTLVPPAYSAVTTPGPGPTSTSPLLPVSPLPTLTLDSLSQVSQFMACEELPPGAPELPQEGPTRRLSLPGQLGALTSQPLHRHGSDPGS
Sequence of Melanocortin receptor 3 (P41968 whole entry): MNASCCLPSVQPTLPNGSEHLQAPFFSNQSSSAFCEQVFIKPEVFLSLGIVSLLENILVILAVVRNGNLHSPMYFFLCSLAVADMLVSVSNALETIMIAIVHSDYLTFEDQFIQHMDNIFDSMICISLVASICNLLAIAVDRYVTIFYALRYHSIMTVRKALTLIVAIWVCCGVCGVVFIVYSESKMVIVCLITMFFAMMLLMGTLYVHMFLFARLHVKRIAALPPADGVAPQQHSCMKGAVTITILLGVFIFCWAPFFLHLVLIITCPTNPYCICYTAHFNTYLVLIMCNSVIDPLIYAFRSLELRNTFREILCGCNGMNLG
Sequence of Bile salt export pump (O95342 whole entry): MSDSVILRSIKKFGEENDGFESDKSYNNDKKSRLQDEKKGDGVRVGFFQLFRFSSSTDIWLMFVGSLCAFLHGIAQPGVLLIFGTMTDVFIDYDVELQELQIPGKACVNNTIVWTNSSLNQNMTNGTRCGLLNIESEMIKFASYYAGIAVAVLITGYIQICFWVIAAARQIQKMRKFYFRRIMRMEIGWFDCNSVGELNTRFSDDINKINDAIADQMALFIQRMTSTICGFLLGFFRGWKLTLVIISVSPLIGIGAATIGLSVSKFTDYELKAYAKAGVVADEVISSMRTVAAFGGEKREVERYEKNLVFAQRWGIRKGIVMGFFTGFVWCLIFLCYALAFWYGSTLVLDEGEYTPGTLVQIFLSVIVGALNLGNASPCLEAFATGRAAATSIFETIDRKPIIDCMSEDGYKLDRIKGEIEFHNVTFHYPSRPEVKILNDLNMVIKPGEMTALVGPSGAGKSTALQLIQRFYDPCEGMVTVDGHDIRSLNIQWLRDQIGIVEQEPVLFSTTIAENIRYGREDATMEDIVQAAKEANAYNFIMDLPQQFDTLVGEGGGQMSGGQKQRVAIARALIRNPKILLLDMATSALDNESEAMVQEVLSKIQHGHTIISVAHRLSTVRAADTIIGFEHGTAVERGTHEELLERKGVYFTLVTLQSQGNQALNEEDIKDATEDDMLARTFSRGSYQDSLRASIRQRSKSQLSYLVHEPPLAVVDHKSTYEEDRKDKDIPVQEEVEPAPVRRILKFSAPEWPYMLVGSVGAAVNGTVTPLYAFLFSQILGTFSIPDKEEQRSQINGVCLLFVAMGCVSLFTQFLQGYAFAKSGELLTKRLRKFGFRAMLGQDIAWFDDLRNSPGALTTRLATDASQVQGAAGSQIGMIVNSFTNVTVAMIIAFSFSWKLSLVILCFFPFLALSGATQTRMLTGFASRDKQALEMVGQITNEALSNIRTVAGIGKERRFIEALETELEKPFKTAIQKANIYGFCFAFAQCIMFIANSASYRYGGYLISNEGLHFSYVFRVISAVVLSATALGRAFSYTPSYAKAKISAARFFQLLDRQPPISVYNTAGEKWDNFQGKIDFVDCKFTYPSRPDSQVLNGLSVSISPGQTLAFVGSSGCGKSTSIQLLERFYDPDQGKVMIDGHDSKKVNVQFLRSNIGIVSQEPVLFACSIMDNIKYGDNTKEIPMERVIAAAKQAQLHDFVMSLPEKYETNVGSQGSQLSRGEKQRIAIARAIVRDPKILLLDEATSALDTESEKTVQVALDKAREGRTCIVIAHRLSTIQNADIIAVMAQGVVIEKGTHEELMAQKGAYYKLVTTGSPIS
Sequence of Growth hormone secretagogue receptor type 1 (Q92847 whole entry): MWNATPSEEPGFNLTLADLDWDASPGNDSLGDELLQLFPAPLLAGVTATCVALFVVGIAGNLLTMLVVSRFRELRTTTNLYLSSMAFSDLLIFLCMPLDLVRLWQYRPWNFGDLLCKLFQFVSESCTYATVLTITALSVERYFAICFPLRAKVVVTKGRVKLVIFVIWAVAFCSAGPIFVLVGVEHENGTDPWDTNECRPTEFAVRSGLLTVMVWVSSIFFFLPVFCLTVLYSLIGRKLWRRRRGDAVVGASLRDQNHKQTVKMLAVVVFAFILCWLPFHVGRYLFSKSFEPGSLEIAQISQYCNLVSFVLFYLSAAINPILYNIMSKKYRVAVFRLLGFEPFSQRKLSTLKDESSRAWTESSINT
Sequence of Neuronal acetylcholine receptor subunit alpha-4 (P43681 whole entry): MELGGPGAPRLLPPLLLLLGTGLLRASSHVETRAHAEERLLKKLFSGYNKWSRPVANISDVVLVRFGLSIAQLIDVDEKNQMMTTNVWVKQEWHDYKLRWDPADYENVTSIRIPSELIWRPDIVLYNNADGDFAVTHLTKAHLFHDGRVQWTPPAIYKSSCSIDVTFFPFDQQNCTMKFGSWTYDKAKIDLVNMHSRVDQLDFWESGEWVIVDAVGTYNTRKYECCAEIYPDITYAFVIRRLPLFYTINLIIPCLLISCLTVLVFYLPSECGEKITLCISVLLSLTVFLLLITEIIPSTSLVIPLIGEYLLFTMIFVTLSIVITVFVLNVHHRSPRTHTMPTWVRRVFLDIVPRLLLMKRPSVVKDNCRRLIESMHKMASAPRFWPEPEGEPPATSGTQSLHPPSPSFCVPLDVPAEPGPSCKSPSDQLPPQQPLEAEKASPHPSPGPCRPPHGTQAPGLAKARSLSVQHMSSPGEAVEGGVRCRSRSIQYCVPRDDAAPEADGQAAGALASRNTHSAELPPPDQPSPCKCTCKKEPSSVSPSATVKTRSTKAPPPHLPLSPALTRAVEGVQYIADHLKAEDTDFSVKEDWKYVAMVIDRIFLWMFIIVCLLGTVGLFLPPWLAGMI
Sequence of Gamma-aminobutyric acid receptor subunit alpha-1 (P62813 whole entry): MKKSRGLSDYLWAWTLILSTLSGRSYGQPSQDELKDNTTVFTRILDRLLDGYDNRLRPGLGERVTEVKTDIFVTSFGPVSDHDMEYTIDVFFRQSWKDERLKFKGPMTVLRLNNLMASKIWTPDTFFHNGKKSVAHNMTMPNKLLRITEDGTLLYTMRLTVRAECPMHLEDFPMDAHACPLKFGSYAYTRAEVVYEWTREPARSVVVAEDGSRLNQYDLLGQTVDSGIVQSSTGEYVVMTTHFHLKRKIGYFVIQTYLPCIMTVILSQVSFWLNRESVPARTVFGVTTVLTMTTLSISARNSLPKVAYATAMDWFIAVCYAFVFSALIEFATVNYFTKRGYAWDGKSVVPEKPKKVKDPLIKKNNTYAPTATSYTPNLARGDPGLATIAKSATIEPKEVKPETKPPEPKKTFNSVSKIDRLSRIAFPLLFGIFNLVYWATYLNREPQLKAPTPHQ
Sequence of Sodium-dependent dopamine transporter (Q01959 whole entry): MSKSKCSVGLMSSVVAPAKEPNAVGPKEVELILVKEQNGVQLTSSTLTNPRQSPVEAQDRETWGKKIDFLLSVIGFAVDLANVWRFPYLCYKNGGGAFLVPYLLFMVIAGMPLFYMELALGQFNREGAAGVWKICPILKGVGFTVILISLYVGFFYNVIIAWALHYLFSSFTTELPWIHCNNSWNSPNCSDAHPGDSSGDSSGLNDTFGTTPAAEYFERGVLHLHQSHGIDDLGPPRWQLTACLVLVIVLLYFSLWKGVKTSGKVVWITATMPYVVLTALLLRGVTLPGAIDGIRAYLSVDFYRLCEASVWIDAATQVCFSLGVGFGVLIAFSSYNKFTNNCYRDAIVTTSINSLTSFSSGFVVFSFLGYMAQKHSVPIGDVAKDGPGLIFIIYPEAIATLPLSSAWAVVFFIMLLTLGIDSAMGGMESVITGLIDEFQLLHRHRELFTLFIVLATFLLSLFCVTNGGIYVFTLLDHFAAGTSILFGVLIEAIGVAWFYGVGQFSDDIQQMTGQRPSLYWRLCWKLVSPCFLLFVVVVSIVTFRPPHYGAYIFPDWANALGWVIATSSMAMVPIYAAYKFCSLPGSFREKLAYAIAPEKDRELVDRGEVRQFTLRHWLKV

Row | Structure (SMILES) | AC50 [1] [µM] | AC50 [2] [µM] | AC50 [3] [µM] | AC50 [4] [µM] | AC50 [5] [µM] | AC50 [6] [µM] | AC50 (Melanocortin receptor 3) [µM] | AC50 [7] [µM] | AC50 (Bile salt export pump) [µM] | AC50 [8] [µM] | AC50 (Adenosine receptor A2a) [µM] | AC50 (D(1A) dopamine receptor) [µM] | AC50 [9] [µM] | AC50 [10] [µM] | AC50 [11] [µM] | AC50 [12] [µM] | AC50 [13] [µM] | AC50 [14] [µM]
1 | NC(=O)c1cnccn1 [PYRAZINAMIDE] | > 30 | > 30 | > 30 | > 30 | > 30 | > 30 | 12.6 | > 30 | > 300 | > 30 | > 30 | > 30 | > 30 | > 30 | > 30 | > 30 | > 30 | > 30
2 | CC(C(=O)O)c1ccc(C(=O)c2cccs2)cc1 (stereo not drawn) [SUPROFEN] | > 10 | 0.284 | > 10 | > 30 | > 10 | > 10 | > 10 | > 30 | > 300 | > 30 | > 10 | > 10 | > 10 | > 10 | > 10 | > 10 | > 10 | > 30
3 | CS(=O)(=O)c1ccc([C@@H](O)[C@@H](CO)NC(=O)C(Cl)Cl)cc1 [THIAMPHENICOL] | > 30 | > 30 | > 30 | > 30 | > 30 | > 30 | > 30 | > 30 | > 300 | > 30 | > 30 | > 30 | > 30 | > 30 | > 30 | > 30 | > 30 | > 30
4 | Cc1ccc(C(=O)c2cc(O)c(O)c([N+](=O)[O-])c2)cc1 [TOLCAPONE] | > 10 | 12.7 | > 10 | > 30 | > 10 | > 30 | > 10 | > 30 | 30.3 | 1.95 | > 30 | > 10 | > 10 | 1.1 | > 10 | 12.9 | > 10 | > 10
5 | NC[C@H]1CC[C@H](C(=O)O)CC1 [TRANEXAMIC ACID] | > 10 | > 10 | > 10 | > 30 | > 10 | > 10 | > 10 | > 30 | > 300 | > 30 | > 10 | > 30 | > 10 | > 10 | > 10 | > 10 | > 10 | > 30
6 | CCCS(=O)(=O)Nc1ccc(F)c(C(=O)c2c[nH]c3ncc(-c4ccc(Cl)cc4)cc23)c1F [VEMURAFENIB] | > 30 | > 30 | > 30 | > 30 | > 30 | > 30 | > 30 | > 30 | 37 | > 30 | > 30 | > 30 | > 30 | > 30 | > 30 | > 30 | > 30 | > 30
